Measured values published in ChEMBL document CHEMBL1135877, “Neurotrophic activity of honokiol on the cultures of fetal rat cortical neurons” (2002).

Tests used:
Format in all cases: functional
Rattus norvegicus [1] = organism: Rattus norvegicus; test: Compound was tested at 0.1 uM concentration for neurotrophic activity on cultures of E 18 SD rat cortical neurons
Rattus norvegicus [2] = organism: Rattus norvegicus; test: Compound was tested at 1 uM concentration for neurotrophic activity on cultures of E 18 SD rat cortical neurons
Rattus norvegicus [3] = organism: Rattus norvegicus; test: Compound was tested at 10 uM concentration for neurotrophic activity on cultures of E 18 SD rat cortical neurons
Rattus norvegicus [4] = organism: Rattus norvegicus; test: Compound was tested at 0.01 uM concentration for neurotrophic activity on cultures of E 18 SD rat cortical neurons
Rattus norvegicus [5] = organism: Rattus norvegicus; test: Compound was tested at 100 uM concentration for neurotrophic activity on cultures of E 18 SD rat cortical neurons

For `C=CCc1ccc(O)c(-c2ccc(O)c(CC=C)c2)c1` [HONOKIOL], the Control (Rattus norvegicus [1]) was 106%, the Control (Rattus norvegicus [2]) was 113% and the Control (Rattus norvegicus [3]) was 143%. The Control (Rattus norvegicus [4]) was 95.6% and the Control (Rattus norvegicus [5]) was 29.7%.
